Assay results reported in ChEMBL document CHEMBL5316357, “Discovery of Linvencorvir (RG7907), a Hepatitis B Virus Core Protein Allosteric Modulator, for the Treatment of Chronic HBV Infection” (J Med Chem, 2023).

Legend:
[1] = Half life in mouse plasma at 1 mg/kg,iv; type: ADME, organism-based
[2] = Half life in female minipig at 3 mg/kg,po by LC-MS/MS analysis; type: ADME, organism-based, Sus scrofa domesticus; conditions: pig, in vivo
[3] = Oral bioavailability in male minipig at 10 mg/kg by LC-MS/MS analysis; type: ADME, organism-based, Sus scrofa domesticus; conditions: pig, in vivo
[4] = Tmax in female Wistar Han rat at 3 mg/kg,po by LC-MS/MS analysis; type: ADME, organism-based; conditions: in vivo
[5] = Oral bioavailability in male cynomolgus monkey at 3 mg/kg by LC-MS/MS analysis; type: ADME, organism-based, Macaca fascicularis; conditions: in vivo
[6] = molecular target: Cytochrome P450 2D6 (Homo sapiens, UniProt P10635); assay: Inhibition of CYP2D6 (unknown origin); type: ADME
[7] = AUClast in female cynomolgus monkey at 10 mg/kg,po by LC-MS/MS analysis; type: ADME, organism-based, Macaca fascicularis; parameters: dose 10 mg/kg, route po; conditions: in vivo
[8] = Half life in cynomolgus monkey at 2 mg/kg,iv by LC-MS/MS analysis; type: ADME, organism-based, Macaca fascicularis; conditions: in vivo
[9] = Cmax in male minipig at 30 mg/kg,po by LC-MS/MS analysis; type: ADME, organism-based, Sus scrofa domesticus; parameters: dose 30 mg/kg, route po; conditions: pig, in vivo
[10] = AUClast in male cynomolgus monkey at 3 mg/kg,po by LC-MS/MS analysis; type: ADME, organism-based, Macaca fascicularis; parameters: dose 3 mg/kg, route po; conditions: in vivo
[11] = Half life in female cynomolgus monkey at 3 mg/kg,po by LC-MS/MS analysis; type: ADME, organism-based, Macaca fascicularis; conditions: in vivo
[12] = Oral bioavailability in female minipig at 10 mg/kg by LC-MS/MS analysis; type: ADME, organism-based, Sus scrofa domesticus; conditions: pig, in vivo
[13] = molecular target: Cytochrome P450 3A4 (Homo sapiens, UniProt P08684); assay: Inhibition of CYP3A4 (unknown origin); type: ADME
[14] = Cmax in female Wistar Han rat at 10 mg/kg,po by LC-MS/MS analysis; type: ADME, organism-based; parameters: dose 10 mg/kg, route po; conditions: in vivo
[15] = Oral bioavailability in female Wistar Han rat at 10 mg/kg by LC-MS/MS analysis; type: ADME, organism-based; conditions: in vivo
[16] = AUClast in male minipig at 30 mg/kg,po by LC-MS/MS analysis; type: ADME, organism-based, Sus scrofa domesticus; parameters: dose 30 mg/kg, route po; conditions: pig, in vivo
[17] = molecular target: Cytochrome P450 2C9 (Homo sapiens, UniProt P11712); assay: Inhibition of CYP2C9 (unknown origin); type: ADME
[18] = Volume of distribution at steady state in cynomolgus monkey at 2 mg/kg,iv by LC-MS/MS analysis; type: ADME, organism-based, Macaca fascicularis; conditions: in vivo, read-out: Vdss
[19] = Tmax in male minipig at 30 mg/kg,po by LC-MS/MS analysis; type: ADME, organism-based, Sus scrofa domesticus; conditions: pig, in vivo
[20] = Tmax in male minipig at 3 mg/kg,po by LC-MS/MS analysis; type: ADME, organism-based, Sus scrofa domesticus; conditions: pig, in vivo
[21] = Cmax in female Wistar Han rat at 30 mg/kg,po by LC-MS/MS analysis; type: ADME, organism-based; parameters: dose 30 mg/kg, route po; conditions: in vivo
[22] = Half life in male minipig at 3 mg/kg,po by LC-MS/MS analysis; type: ADME, organism-based, Sus scrofa domesticus; conditions: pig, in vivo
[23] = Tmax in female cynomolgus monkey at 10 mg/kg,po by LC-MS/MS analysis; type: ADME, organism-based, Macaca fascicularis; conditions: in vivo
[24] = Cmax in female minipig at 30 mg/kg,po by LC-MS/MS analysis; type: ADME, organism-based, Sus scrofa domesticus; parameters: dose 30 mg/kg, route po; conditions: pig, in vivo
[25] = AUClast in male Wistar Han rat at 10 mg/kg,po by LC-MS/MS analysis; type: ADME, organism-based; parameters: dose 10 mg/kg, route po; conditions: in vivo
[26] = Tmax in female Wistar Han rat at 10 mg/kg,po by LC-MS/MS analysis; type: ADME, organism-based; conditions: in vivo
[27] = Oral bioavailability in male Wistar Han rat at 10 mg/kg by LC-MS/MS analysis; type: ADME, organism-based; conditions: in vivo
[28] = Cmax in male minipig at 3 mg/kg,po by LC-MS/MS analysis; type: ADME, organism-based, Sus scrofa domesticus; parameters: dose 3 mg/kg, route po; conditions: pig, in vivo
[29] = Oral bioavailability in female cynomolgus monkey at 10 mg/kg by LC-MS/MS analysis; type: ADME, organism-based, Macaca fascicularis; conditions: in vivo
[30] = Half life in male cynomolgus monkey at 30 mg/kg,po by LC-MS/MS analysis; type: ADME, organism-based, Macaca fascicularis; conditions: in vivo
[31] = Clearance in rat plasma at 1 mg/kg,iv; type: ADME, organism-based
[32] = Tmax in female Wistar Han rat at 30 mg/kg,po by LC-MS/MS analysis; type: ADME, organism-based; conditions: in vivo
[33] = AUClast in female cynomolgus monkey at 30 mg/kg,po by LC-MS/MS analysis; type: ADME, organism-based, Macaca fascicularis; parameters: dose 30 mg/kg, route po; conditions: in vivo
[34] = Cmax in male Wistar Han rat at 10 mg/kg,po by LC-MS/MS analysis; type: ADME, organism-based; parameters: dose 10 mg/kg, route po; conditions: in vivo
[35] = Cmax in female minipig at 3 mg/kg,po by LC-MS/MS analysis; type: ADME, organism-based, Sus scrofa domesticus; parameters: dose 3 mg/kg, route po; conditions: pig, in vivo
[36] = Tmax in female cynomolgus monkey at 3 mg/kg,po by LC-MS/MS analysis; type: ADME, organism-based, Macaca fascicularis; conditions: in vivo
[37] = AUClast in male Wistar Han rat at 3 mg/kg,po by LC-MS/MS analysis; type: ADME, organism-based; parameters: dose 3 mg/kg, route po; conditions: in vivo
[38] = molecular target: T1, Cytochrome P450 1A2 (Homo sapiens, UniProt P05177); assay: Inhibition of CYP1A2 (unknown origin); type: ADME
T1 sequence (P05177 whole entry): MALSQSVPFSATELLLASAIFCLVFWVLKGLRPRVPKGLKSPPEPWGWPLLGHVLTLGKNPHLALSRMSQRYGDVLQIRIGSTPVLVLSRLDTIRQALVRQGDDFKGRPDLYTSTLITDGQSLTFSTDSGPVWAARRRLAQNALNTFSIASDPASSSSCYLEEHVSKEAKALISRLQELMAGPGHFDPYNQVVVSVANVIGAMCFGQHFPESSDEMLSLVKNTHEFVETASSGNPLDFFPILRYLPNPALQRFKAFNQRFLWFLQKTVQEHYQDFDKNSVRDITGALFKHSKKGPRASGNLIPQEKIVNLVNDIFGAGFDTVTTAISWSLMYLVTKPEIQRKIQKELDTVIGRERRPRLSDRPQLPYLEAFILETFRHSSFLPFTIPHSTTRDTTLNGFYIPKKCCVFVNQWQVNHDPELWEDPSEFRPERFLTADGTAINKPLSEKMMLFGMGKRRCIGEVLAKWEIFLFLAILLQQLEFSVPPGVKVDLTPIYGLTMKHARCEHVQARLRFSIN

[39] = Clearance in human hepatocyte at 2 uM measured upto 120 mins by LC-MS/MS analysis; type: ADME, cell-based; conditions: hepatocytes
[40] = Tmax in female minipig at 30 mg/kg,po by LC-MS/MS analysis; type: ADME, organism-based, Sus scrofa domesticus; conditions: pig, in vivo
[41] = AUClast in cynomolgus monkey at 2 mg/kg,iv by LC-MS/MS analysis; type: ADME, organism-based, Macaca fascicularis; parameters: dose 2 mg/kg, route iv; conditions: in vivo
[42] = Tmax in male Wistar Han rat at 10 mg/kg,po by LC-MS/MS analysis; type: ADME, organism-based; conditions: in vivo
[43] = Volume of distribution at steady state in mouse plasma at 1 mg/kg,iv; type: ADME, organism-based; conditions: read-out: Vdss
[44] = Oral bioavailability in male Wistar Han rat at 30 mg/kg by LC-MS/MS analysis; type: ADME, organism-based; conditions: in vivo
[45] = Tmax in male minipig at 10 mg/kg,po by LC-MS/MS analysis; type: ADME, organism-based, Sus scrofa domesticus; conditions: pig, in vivo
[46] = Cmax in female cynomolgus monkey at 30 mg/kg,po by LC-MS/MS analysis; type: ADME, organism-based, Macaca fascicularis; parameters: dose 30 mg/kg, route po; conditions: in vivo
[47] = AUClast in male minipig at 3 mg/kg,po by LC-MS/MS analysis; type: ADME, organism-based, Sus scrofa domesticus; parameters: dose 3 mg/kg, route po; conditions: pig, in vivo
[48] = molecular target: Cytochrome P450 2C19 (Homo sapiens, UniProt P33261); assay: Inhibition of CYP2C19 (unknown origin); type: ADME
[49] = AUC (0-infinity) in rat plasma at 3 mg/kg,po; type: ADME, organism-based; parameters: dose 3 mg/kg, route po; conditions: plasma

Sequence of Cytochrome P450 2D6 (P10635 whole entry): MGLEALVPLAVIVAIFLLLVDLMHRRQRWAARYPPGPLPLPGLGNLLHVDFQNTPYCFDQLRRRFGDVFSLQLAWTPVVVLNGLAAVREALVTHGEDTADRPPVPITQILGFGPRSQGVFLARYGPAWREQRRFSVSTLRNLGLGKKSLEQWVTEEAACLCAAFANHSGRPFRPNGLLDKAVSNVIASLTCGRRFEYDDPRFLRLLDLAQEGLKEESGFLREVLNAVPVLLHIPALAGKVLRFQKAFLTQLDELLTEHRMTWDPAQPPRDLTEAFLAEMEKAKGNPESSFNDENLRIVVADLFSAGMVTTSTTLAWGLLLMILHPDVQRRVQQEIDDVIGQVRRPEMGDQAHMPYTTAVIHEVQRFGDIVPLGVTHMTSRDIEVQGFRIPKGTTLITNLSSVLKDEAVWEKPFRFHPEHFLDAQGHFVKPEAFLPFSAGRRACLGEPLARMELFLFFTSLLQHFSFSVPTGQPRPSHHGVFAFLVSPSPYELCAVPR
Sequence of Cytochrome P450 3A4 (P08684 whole entry): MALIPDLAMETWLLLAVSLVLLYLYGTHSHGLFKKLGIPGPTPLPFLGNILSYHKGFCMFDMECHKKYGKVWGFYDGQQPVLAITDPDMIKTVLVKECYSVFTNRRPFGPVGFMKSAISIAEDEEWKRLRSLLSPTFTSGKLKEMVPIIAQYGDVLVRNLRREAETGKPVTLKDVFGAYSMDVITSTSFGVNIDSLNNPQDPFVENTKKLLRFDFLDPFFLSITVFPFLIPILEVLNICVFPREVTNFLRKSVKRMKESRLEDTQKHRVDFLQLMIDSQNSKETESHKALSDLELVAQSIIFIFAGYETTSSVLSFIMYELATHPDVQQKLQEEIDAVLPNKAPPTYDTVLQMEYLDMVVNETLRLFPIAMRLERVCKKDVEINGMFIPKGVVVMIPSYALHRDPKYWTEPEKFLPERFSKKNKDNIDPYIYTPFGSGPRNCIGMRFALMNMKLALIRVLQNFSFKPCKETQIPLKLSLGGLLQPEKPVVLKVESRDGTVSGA
Sequence of Cytochrome P450 2C9 (P11712 whole entry): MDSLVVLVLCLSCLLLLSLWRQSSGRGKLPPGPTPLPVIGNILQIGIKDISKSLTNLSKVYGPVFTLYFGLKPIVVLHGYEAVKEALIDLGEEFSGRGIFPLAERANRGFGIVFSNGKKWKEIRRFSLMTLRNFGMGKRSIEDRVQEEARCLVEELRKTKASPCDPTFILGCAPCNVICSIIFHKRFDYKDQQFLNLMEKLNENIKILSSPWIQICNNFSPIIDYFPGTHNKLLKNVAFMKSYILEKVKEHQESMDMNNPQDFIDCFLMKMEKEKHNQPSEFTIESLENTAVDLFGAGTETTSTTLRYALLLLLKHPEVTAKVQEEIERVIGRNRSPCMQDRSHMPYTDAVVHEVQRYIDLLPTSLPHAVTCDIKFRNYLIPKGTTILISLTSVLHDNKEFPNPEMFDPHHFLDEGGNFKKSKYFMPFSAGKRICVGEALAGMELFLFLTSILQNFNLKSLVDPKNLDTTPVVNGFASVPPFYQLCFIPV
Sequence of Cytochrome P450 2C19 (P33261 whole entry): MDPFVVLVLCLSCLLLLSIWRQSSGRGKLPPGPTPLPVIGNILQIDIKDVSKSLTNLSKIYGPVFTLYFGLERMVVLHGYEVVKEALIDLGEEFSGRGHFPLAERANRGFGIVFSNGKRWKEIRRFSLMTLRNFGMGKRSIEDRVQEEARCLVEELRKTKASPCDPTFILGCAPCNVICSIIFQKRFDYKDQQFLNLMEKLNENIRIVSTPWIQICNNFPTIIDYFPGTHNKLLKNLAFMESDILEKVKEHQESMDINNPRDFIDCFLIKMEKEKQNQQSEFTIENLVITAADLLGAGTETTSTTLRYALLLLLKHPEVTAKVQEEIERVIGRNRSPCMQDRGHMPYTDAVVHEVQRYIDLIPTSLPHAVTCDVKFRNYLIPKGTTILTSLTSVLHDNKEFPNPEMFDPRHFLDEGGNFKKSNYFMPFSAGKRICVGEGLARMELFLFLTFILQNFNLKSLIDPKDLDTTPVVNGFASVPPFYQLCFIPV

CCOC(=O)C1=C(CN2CCN3C(=O)N(CC(C)(C)C(=O)O)C[C@@H]3C2)NC(c2nccs2)=N[C@H]1c1cccc(F)c1C [LINVENCORVIR]
half-life [1]: 54 min
half-life [2]: 581 min
bioavailability [3]: 18.6%
Tmax [4]: 30 min
bioavailability [5]: 10.3%
IC50 [6]: > 50 µM
AUC(0-t) [7]: 1060 ng·h/mL
half-life [8]: 106 min
Cmax [9]: 768 ng/mL
AUC(0-t) [10]: 280 ng·h/mL
half-life [11]: 355 min
bioavailability [12]: 11.4%
IC50 [13]: > 50 µM
Cmax [14]: 683 ng/mL
bioavailability [15]: 36.4%
AUC(0-t) [16]: 4150 ng·h/mL
IC50 [17]: > 50 µM
Vd [18]: 0.67 L/kg
Tmax [19]: 2 h
Tmax [20]: 30 min
Cmax [21]: 3310 ng/mL
half-life [22]: 581 min
Tmax [23]: 30 min
Cmax [24]: 429 ng/mL
AUC(0-t) [25]: 1440 ng·h/mL
Tmax [26]: 1 h
bioavailability [27]: 26.2%
Cmax [28]: 67.3 ng/mL
bioavailability [29]: 18.2%
half-life [30]: 367 min
clearance [31]: 30 mL/min/kg
Tmax [32]: 2 h
AUC(0-t) [33]: 3150 ng·h/mL
Cmax [34]: 512 ng/mL
Cmax [35]: 46 ng/mL
Tmax [36]: 15 min
AUC(0-t) [37]: 209 ng·h/mL
IC50 [38]: > 50 µM
CLhep predicted at 2 µM [39]: 5.6 mL/min/kg
Tmax [40]: 2 h
AUC(0-t) [41]: 1490 ng·h/mL
Tmax [42]: 1.5 h
Vd [43]: 1 L/kg
bioavailability [44]: 50%
Tmax [45]: 1 h
Cmax [46]: 841 ng/mL
AUC(0-t) [47]: 228 ng·h/mL
IC50 [48]: > 50 µM
AUC(0-inf) [49]: 70 ng·h/mL
